For one data set, the system named is E. faecium ATCC 35667. Put plainly: microbe, parasite or virus in culture. The format is cell-based, Enterococcus faecium. The method, then:
(§1) Clinical isolates of CRE, MRSA and VRE were obtained from Lancet Laboratories, Durban, South Africa, with approval BE394/15 from the Biomedical Research Ethical Committee of the University of KwaZulu-Natal. Five reference strains of bacteria, namely Escherichia coli ATCC 25922, Pseudomonas aeruginosa ATCC 27853, Enterococcus faecium ATCC 35667, Staphylococcus aureus ATCC 29213 and Bacillus subtilis ATCC 6051 were supplied by the American Type Culture Collection (ATCC).
(§2) MIC values were determined by the broth microdilution method and the significance of the values obtained was interpreted following the guidelines of the Clinical and Laboratory Standards for Antimicrobial Susceptibility Testing.. The effect of human serum on the antimicrobial effect of the molecules tested was determined in a similar way to the MIC method used above in a solution of 50% human serum plus Mueller–Hinton broth.

A further data set concerns B. subtilis ATCC 6051. Briefly: microbe, parasite or virus in culture. The format is cell-based, Bacillus subtilis. The method, then: as §1, §2
Another data set is described as follows: in vitro. As to conditions: human.
The subject of a further data set is S. aureus ATCC 29213. Put plainly: microbe, parasite or virus in culture. In kind it is cell-based, Staphylococcus aureus. How it is done: as §1, §2
The next data set deals with P. aeruginosa. Put plainly: Effect on bacterial growth curves. The format is cell-based. As to conditions: at ½ MIC or ¼ MIC. How it is done:
The study of the growth dynamic of the S. aureus, E. coli and P.aeruginosa strains against CAMPDs were assayed with a starting inoculum of 10^6–10^8 CFU/mL in a 10 mL specific falcon tube. The experiment was performed by a real-time reverse-spin bioreactor RTS-1 (Biosan SIA, Riga, Latvia) that applies non-invasive, mechanically driven rotation; thus, the cell suspension is mixed efficiently, mixing and oxygening the culture at 37 °C. Cell growth kinetics were recorded non-invasively in real time from data obtained from a near-infrared optical system, every 15 min.

Another data set has as its system E. coli ATCC 25822. Briefly: microbe, parasite or virus in culture. In kind it is cell-based, Escherichia coli. The method, then:
as §1, §2

Another data set has as its system P. aeruginosa ATCC 27853. Put plainly: microbe, parasite or virus in culture. In kind it is cell-based, Pseudomonas aeruginosa. The method, then:
as §1, §2

The test system of data set [1] is MRSA (methicillin-resistant S. aureus) isolates. Briefly: microbe, parasite or virus in culture. In kind it is cell-based. As to conditions: methicillin-resistant ) isolates. The method, then:
as §1, §2

The nature of another data set: MTT cytotoxicity assay. In kind it is cell-based, human. The following applies: human, HepG2 cells, HepG2, 24 h exposure. Background: Tetrazolium dyes change colour on reduction, which living cells bring about.
The test system of a further data set is CRE, E. coli isolates. Briefly: microbe, parasite or virus in culture. The format is cell-based. As to conditions: Escherichia coli. How it is done:
as §1, §2

≈ marks a conversion by molar mass, not a printed value. Where two headings read alike, the source gives them in different places. Bridge positions count the residues as written; N and C are the ends. Side chains are listed from the residue outwards. Peptide text beside a SMILES is read from it. I, II: the chains in the order shown. Bounds are passed on as bounds.

Description for MTT cytotoxicity assay: (§3) Cell viability was evaluated using the colorimetric MTT assay [21]. Human hepatocarcinoma (HepG2) cells and human embryonic kidney 293 (HEK-293) cells used in the drug toxicity assays were obtained from Cellonex (Johannesburg, South Africa). Viable HepG2 and HEK293 cells (20,000 cells/well) were seeded into a 96-well microtiter plate (200 µL) and allowed to attach overnight. The cells were exposed to varying concentrations of the peptides for 24 h. After removal of the treatment medium, 20 µL of MTT salt solution (5 mg/mL in 0.1M phosphate buffer saline (PBS)) and 100 µL of complete cell culture medium (CCM) were added to each well. After a 4 h (37 °C) incubation, the MTT salt solution was discarded and 100 μL of dimethyl sulphoxide (DMSO) were added to each well (1 h, 37 °C). The optical density of the solubilized formazan product was measured at 570 nm (reference λ of 690 nm) using a Bio-tek μQuant spectrophotometer (Winooski, VT, USA). […] GraphPad Prism (V5) (La Jolla, CA, USA) was used to obtain the half maximum inhibitory concentration (IC50) for each compound.
Description for in vitro: as §3

For the compound `CC(C)C[C@H](NC(=O)[C@H](CC(C)C)NC(=O)[C@H](CCCCN)NC(=O)[C@H](CC(C)C)NC(=O)[C@H](CC(C)C)NC(=O)[C@H](CCCCNC(=O)[C@H](CCCCN)NC(=O)[C@H](CC(C)C)NC(=O)[C@H](CCCCN)NC(=O)[C@H](CCCCNC(=O)[C@H](CCCCN)NC(=O)[C@H](CC(C)C)NC(=O)[C@@H](N)CCCCN)NC(=O)[C@H](CCCCN)NC(=O)[C@H](CC(C)C)NC(=O)[C@@H](N)CCCCN)NC(=O)[C@H](CCCCN)NC(=O)[C@H](CC(C)C)NC(=O)[C@H](CCCCN)NC(=O)[C@H](CCCCNC(=O)[C@H](CCCCN)NC(=O)[C@H](CC(C)C)NC(=O)[C@@H](N)CCCCN)NC(=O)[C@H](CCCCN)NC(=O)[C@H](CC(C)C)NC(=O)[C@@H](N)CCCCN)C(N)=O` [G2KLK-L2KL2, (KLK)4(KKLK)2KLLKLL-NH2] (I: H-KLKK([Lys-Leu-Lys])KLKKLLKLL-NH2 / II: H-KLKK([Lys-Leu-Lys])KLK; amide I:8-II:C), the MBC in the data set on E. faecium ATCC 35667 (ATCC 35667) was determined as 32 µg/mL (≈ 10 µM); against B. subtilis ATCC 6051 (ATCC 6051), 8 µg/mL (≈ 2.5 µM); against S. aureus ATCC 29213 (ATCC 29213), 32 µg/mL (≈ 10 µM); with E. coli ATCC 25822 (ATCC 25822), 32 µg/mL (≈ 10 µM); against P. aeruginosa ATCC 27853 (ATCC 27853) it was 16 µg/mL (≈ 5 µM). In addition, the MIC is 32 µg/mL (≈ 10 µM) against E. faecium ATCC 35667 (ATCC 35667); 8 µg/mL (≈ 2.5 µM) against B. subtilis ATCC 6051 (ATCC 6051); 32 µg/mL (≈ 10 µM) in the data set on S. aureus ATCC 29213 (ATCC 29213); 16 µg/mL (≈ 5 µM) against E. coli ATCC 25822 (ATCC 25822); 8 to 16 µg/mL against P. aeruginosa ATCC 27853 (ATCC 27853); 64 µg/mL (≈ 20 µM) in [1]. For the same compound, the IC50 (in general, the concentration needed to halve the response being measured) at 24 h in “in vitro” was 116 µg/mL (≈ 36.2 µM); in “MTT cytotoxicity assay” it was 124 µg/mL (≈ 38.7 µM). Also, in the data set with P. aeruginosa, the “effect on growth curve” value is recorded as “less capacity to delay growth”.

For `C[C@@H](O)[C@H]1C(=O)N2C(C(=O)O)=C(S[C@@H]3CN[C@H](C(=O)N(C)C)C3)[C@H](C)[C@H]12` [Meropenem, reference compound], the MIC was below 0.25 µg/mL with E. faecium ATCC 35667 (Enterococcus faecium, ATCC35667, E. faecium ATCC 35667, read-out: MIC); 0.062 µg/mL (≈ 0.162 µM) with B. subtilis ATCC 6051 (Bacillus subtilis, ATCC6051, B. subtilis ATCC 6051, read-out: MIC); 0.25 µg/mL (≈ 0.652 µM) in the data set on S. aureus ATCC 29213 (Staphylococcus aureus, ATCC29213, S. aureus ATCC 29213, read-out: MIC); 0.125 µg/mL (≈ 0.326 µM) against E. coli ATCC 25822 (Escherichia coli, ATCC25822); 1 µg/mL (≈ 2.61 µM) in the data set on P. aeruginosa ATCC 27853 (Pseudomonas aeruginosa, ATCC27853, P. aeruginosa ATCC 27853, read-out: MIC); 8 µg/mL (≈ 20.9 µM) against CRE, E. coli isolates (CRE E. coli isolate IMP JAP). In addition, the MIC against CRE, E. coli isolates (CRE E. coli isolate KPC L2l) was 16 µg/mL (≈ 41.7 µM); in the data set on CRE, E. coli isolates (CRE E. coli isolate NDM4-FEK), above 32 µg/mL; against CRE, E. coli isolates (CRE E. coli isolate OXA-48 501), 2 µg/mL (≈ 5.22 µM); with CRE, E. coli isolates (CRE E. coli isolate VIM-1 BM-12), above 32 µg/mL.
